Laboratory results as given in patent publication US20050079232A1, “Composition for promotion of bone growth and maintenance of bone health” (priority 2001, published 2005).

Tests used:
BMP-2 promoter = assay: BMP-2 luciferase assay (BMP-2 gene reporter assay, bone formation); format: cell-based; details: 10^−6M; result in words
Method: BMP-2 luciferase assay—The activity of the extracts was determined using 2T3 cells containing the BMP-2 promoter operatively linked to the luciferase gene. An increase in luciferase activity in cell lysates reflects an increase in BMP-2 promoter activity. The extracts were assayed at an initial dilution of 100 μg/ml with ½ dilutions down to 0.2 μg/ml. BMP-2 promoter activity was measured by measuring the luciferase activity in cell extracts.

BMP-2 = assay: Endogenous BMP-2 mRNA expression in hPOB-tert cells by RT-PCR; format: cell-based, human; details: 0.5 μg/ml, positive control
Method: The plants found positive for BMP-2 induction in example 1 were further tested in a human periosteal/preosteoblast cell line, hPOB-tert for their ability to induce the endogenous expression of BMP-2. This test in osteoblast cells confirmed the results shown in example 1.
[…] Total RNA was extracted with TRIzol Reagent (Gibco). 10 μg RNA were reverse transcribed using the 1st Strand cDNA Synthesis Kit (Boehringer). BMP-2 cDNA sequences were amplified for 35 cycles at an annealing temperature of 55° C. using specific oligonucleotide primers (5′: […]; 3′: […]). PCR products were separated by agarose gel electrophoresis and detected by ethidium bromide staining. Quantification was performed using NIH Image Software and normalizing results with Actin as house-keeping gene.

O=c1c(-c2ccc(O)cc2)coc2cc(O)ccc12 [daidzein]
stimulation of BMP-2 (promoter activity) (BMP-2 promoter): stimulated BMP-2

O=c1c(-c2ccc(O)cc2)coc2cc(O)cc(O)c12 [genistein]
stimulation of BMP-2 (promoter activity) (BMP-2 promoter): stimulated BMP-2

CC[C@H](C)C(=O)O[C@H]1C[C@@H](C)C=C2C=C[C@H](C)[C@H](CC[C@@H]3C[C@@H](O)CC(=O)O3)[C@H]21 [lovastatin]
induction of BMP-2 (BMP-2): 2.5 fold
